Measured values taken from ChEMBL document CHEMBL1909046, “DrugMatrix in vitro pharmacology data”.

Tests used:
[1] = DRUGMATRIX: Glutamate, AMPA radioligand binding (ligand: [3H] AMPA); assay type: cell membranes, Rattus norvegicus, Wistar, Cerebral cortex, Membrane; conditions: Not Active = under 50% inhibition at 10 µM
[2] = DRUGMATRIX: Sigma2 radioligand binding (ligand: [3H] Ifenprodil); assay type: cell membranes, Rattus norvegicus, Wistar, Brain, Membrane; conditions: Not Active = under 50% inhibition at 10 µM
[3] = DRUGMATRIX: Phorbol Ester radioligand binding (ligand: [3H] PDBu); assay type: cell membranes, Mus musculus, ICR, Brain, Membrane; conditions: Not Active = under 50% inhibition at 10 µM
[4] = DRUGMATRIX: Glutamate, NMDA, Phencyclidine radioligand binding (ligand: [3H] TCP); assay type: cell membranes, Rattus norvegicus, Wistar, Cerebral cortex, Membrane; conditions: Not Active = under 50% inhibition at 10 µM
[5] = target: Sodium-dependent dopamine transporter (Homo sapiens, UniProt Q01959); assay: DRUGMATRIX: Dopamine Transporter radioligand binding (ligand: [125I] RTI-55); assay type: cell membranes, CHO-K1, Membrane; conditions: cho-k1; Not Active = under 50% inhibition at 10 µM
Chain of Sodium-dependent dopamine transporter (Q01959 whole entry): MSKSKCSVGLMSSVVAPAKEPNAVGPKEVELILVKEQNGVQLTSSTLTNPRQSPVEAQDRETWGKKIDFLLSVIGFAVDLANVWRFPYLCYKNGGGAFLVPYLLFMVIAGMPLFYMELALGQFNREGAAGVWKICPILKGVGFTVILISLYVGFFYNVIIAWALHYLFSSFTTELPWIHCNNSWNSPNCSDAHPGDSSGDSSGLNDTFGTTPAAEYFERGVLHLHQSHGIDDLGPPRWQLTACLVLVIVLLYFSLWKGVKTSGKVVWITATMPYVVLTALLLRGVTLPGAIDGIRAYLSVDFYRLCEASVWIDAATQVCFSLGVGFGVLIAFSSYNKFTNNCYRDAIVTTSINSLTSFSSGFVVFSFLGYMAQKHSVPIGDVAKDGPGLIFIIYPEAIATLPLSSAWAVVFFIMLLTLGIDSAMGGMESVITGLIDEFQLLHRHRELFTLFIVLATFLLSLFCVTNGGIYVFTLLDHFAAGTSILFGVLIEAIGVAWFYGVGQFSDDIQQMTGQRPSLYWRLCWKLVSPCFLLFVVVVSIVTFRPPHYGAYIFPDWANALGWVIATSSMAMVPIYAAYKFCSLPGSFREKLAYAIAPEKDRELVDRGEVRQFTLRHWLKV

[6] = target: Tyrosine-protein kinase Fyn (Homo sapiens, UniProt P06241); assay: biochemical; assay type: cell-based, Insect cells; conditions: insect cells;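 note: enzymatic inhibition of Fyn kinase activity measured with Poly(Glu:Tyr) as the phosphorylation substrate; in other assays of this panel Not Active means under 50% inhibition at 10 µM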
Chain of Tyrosine-protein kinase Fyn (P06241 whole entry): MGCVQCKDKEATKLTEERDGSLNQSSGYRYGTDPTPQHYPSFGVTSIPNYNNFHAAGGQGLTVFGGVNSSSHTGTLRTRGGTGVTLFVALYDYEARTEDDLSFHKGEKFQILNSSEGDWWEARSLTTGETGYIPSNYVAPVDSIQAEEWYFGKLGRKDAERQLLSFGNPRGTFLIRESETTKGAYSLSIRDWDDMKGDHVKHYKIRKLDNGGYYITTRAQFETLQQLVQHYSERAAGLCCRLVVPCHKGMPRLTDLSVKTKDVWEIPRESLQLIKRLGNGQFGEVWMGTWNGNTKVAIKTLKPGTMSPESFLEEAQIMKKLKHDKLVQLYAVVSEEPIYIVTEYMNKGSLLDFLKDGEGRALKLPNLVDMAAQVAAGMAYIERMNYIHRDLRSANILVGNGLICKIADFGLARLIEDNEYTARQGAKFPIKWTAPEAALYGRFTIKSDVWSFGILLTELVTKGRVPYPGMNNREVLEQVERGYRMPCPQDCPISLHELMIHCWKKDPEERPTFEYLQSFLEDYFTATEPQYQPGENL

[7] = target: Mitogen-activated protein kinase 1 (Homo sapiens, UniProt P28482); assay: DRUGMATRIX: Protein Serine/Threonine Kinase, ERK2 enzyme inhibition (substrate: Myelin Basic Protein); design: species or system Escherichia coli; conditions: Not Active = under 50% inhibition at 10 µM
Chain of Mitogen-activated protein kinase 1 (P28482 whole entry): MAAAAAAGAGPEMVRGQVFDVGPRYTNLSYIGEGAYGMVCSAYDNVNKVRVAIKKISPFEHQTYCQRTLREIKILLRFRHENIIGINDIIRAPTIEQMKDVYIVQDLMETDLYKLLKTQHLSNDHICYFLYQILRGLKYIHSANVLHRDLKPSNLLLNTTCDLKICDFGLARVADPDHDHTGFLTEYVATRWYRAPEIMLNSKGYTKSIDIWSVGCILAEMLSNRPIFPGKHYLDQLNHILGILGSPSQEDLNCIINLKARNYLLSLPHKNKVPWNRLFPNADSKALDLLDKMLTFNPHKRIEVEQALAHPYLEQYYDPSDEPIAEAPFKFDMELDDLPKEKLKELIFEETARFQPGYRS

[8] = target: Protein phosphatase 3 catalytic subunit alpha (Homo sapiens, UniProt Q08209); design: species or system Escherichia coli;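 note: inhibition of calcineurin (PP2B) enzyme activity, measured with DiFMUP as the substrate; in other assays of this panel Not Active means under 50% inhibition at 10 µM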
[9] = target: Mitogen-activated protein kinase 14 (Homo sapiens, UniProt Q16539); design: species or system Escherichia coli;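 note: inhibition of p38alpha enzyme activity in a biochemical kinase assay, with myelin basic protein serving as substrate; in other assays of this panel Not Active means under 50% inhibition at 10 µM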
Chain of Mitogen-activated protein kinase 14 (Q16539 whole entry): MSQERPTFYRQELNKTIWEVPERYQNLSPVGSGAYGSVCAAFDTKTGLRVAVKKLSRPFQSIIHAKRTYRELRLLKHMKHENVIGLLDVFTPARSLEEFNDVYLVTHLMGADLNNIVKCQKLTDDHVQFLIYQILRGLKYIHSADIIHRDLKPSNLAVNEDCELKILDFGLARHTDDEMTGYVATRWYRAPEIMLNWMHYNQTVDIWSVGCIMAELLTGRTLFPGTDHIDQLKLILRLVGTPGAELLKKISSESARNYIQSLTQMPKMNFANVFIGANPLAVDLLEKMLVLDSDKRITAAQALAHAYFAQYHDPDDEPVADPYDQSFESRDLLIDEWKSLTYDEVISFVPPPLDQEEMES

[10] = DRUGMATRIX: Sodium/nucleoside co-transporter radioligand binding (ligand: nitrobenzylthioinosine); assay type: cell membranes, Cavia porcellus, Dunkin-Hartley, Cerebral cortex, Membrane; conditions: Not Active = under 50% inhibition at 10 µM
Calcitonin receptor = target: T1, Calcitonin receptor (Homo sapiens, UniProt P30988); assay type: cell membranes, Membrane; conditions: t47d; note: in other assays of this panel Not Active means under 50% inhibition at 10 µM
T1 sequence (P30988 whole entry): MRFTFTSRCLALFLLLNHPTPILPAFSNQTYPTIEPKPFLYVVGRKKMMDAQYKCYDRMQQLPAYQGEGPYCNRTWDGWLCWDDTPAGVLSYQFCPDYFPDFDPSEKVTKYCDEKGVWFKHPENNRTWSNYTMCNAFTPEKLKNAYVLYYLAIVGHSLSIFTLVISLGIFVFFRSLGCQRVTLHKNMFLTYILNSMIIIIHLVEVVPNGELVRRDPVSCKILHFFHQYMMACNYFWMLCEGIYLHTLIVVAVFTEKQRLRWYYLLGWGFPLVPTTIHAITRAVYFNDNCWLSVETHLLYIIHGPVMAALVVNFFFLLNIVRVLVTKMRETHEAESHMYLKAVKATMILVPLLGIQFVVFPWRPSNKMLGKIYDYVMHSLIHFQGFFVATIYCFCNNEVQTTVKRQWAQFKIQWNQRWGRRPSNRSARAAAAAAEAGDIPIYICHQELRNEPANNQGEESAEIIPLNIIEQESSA

[11] = DRUGMATRIX: Serotonin (5-Hydroxytryptamine) 5-HT3 radioligand binding (ligand: [3H] GR-65630); assay type: cell membranes, Membrane; conditions: hek293; Not Active = under 50% inhibition at 10 µM
Neutrophil elastase = target: T2, Neutrophil elastase (Homo sapiens, UniProt P08246); assay type: tissue-based
T2 sequence (P08246 whole entry): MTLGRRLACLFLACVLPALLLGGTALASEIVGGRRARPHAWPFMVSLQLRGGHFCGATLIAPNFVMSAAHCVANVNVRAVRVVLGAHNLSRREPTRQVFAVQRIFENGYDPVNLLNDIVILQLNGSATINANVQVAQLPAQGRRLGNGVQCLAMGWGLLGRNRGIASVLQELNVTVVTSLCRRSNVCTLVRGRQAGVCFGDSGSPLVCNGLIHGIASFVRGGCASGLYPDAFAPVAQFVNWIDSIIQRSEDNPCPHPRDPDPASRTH

[12] = target: T3, Muscarinic acetylcholine receptor M4 (Homo sapiens, UniProt P08173); assay type: cell membranes, CHO-K1, Membrane; conditions: cho-k1; note: in other assays of this panel Not Active means under 50% inhibition at 10 µM
T3 sequence (P08173 whole entry): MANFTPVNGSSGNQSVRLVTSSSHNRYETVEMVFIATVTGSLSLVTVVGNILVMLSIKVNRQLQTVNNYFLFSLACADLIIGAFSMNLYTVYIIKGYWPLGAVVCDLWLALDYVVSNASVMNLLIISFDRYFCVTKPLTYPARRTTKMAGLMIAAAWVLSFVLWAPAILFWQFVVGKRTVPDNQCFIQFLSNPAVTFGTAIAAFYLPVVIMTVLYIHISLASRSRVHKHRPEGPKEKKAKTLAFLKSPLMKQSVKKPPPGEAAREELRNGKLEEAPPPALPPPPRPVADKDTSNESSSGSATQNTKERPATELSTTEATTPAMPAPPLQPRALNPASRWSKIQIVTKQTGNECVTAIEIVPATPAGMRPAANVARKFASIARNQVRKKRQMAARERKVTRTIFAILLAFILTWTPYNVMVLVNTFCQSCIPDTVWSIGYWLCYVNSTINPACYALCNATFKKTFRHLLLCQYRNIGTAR

[13] = DRUGMATRIX: GABAA, Muscimol, Central radioligand binding (ligand: [3H] Muscimol); assay type: cell membranes, Rattus norvegicus, Wistar, Brain, Membrane; conditions: Not Active = under 50% inhibition at 10 µM
[14] = target: 5-hydroxytryptamine receptor 4 (Cavia porcellus, UniProt O70528); assay type: cell membranes, Dunkin-Hartley, Striatum, Membrane; note: in other assays of this panel Not Active means under 50% inhibition at 10 µM
Chain of 5-hydroxytryptamine receptor 4 (O70528 whole entry): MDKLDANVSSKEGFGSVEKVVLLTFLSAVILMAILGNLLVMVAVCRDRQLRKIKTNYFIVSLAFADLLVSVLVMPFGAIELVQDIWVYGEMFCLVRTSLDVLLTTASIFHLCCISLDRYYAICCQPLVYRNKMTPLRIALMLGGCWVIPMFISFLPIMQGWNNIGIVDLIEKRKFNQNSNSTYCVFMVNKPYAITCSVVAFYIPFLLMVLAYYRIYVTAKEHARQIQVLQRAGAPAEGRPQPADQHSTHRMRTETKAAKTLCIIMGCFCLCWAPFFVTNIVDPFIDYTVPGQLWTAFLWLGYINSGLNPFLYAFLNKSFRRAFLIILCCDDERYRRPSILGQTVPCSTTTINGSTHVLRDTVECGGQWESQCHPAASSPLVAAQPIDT

D(1A) dopamine receptor = D(1A) dopamine receptor (Homo sapiens, UniProt P21728); assay: DRUGMATRIX: Dopamine D1 radioligand binding (ligand: [3H] SCH-23390); assay type: cell membranes, CHO, Membrane; conditions: cho; Not Active = under 50% inhibition at 10 µM
Chain of D(1A) dopamine receptor (P21728 whole entry): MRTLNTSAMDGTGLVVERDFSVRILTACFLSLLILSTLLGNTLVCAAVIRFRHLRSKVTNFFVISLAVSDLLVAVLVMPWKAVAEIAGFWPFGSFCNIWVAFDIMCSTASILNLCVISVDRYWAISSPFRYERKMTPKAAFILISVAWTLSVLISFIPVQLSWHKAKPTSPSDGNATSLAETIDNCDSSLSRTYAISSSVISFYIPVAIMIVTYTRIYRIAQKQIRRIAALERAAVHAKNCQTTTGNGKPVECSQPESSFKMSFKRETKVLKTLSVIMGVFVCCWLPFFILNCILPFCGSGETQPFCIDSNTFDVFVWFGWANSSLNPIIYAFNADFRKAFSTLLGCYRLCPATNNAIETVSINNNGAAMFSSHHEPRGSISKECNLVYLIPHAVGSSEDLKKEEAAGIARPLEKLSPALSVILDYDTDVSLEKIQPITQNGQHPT

[15] = target: cGMP-specific 3',5'-cyclic phosphodiesterase (Homo sapiens, UniProt O76074); assay: DRUGMATRIX: Phosphodiesterase PDE5 enzyme inhibition (substrate: [3H]cGMP + cGMP); assay type: tissue-based, Platelet; conditions: platelet; Not Active = under 50% inhibition at 10 µM
Insulin receptor = Insulin receptor (Rattus norvegicus, UniProt P15127); assay type: cell membranes, Wistar, Liver, Membrane; note: in other assays of this panel Not Active means under 50% inhibition at 10 µM
Chain of Insulin receptor (P15127 27-759 limits assumed): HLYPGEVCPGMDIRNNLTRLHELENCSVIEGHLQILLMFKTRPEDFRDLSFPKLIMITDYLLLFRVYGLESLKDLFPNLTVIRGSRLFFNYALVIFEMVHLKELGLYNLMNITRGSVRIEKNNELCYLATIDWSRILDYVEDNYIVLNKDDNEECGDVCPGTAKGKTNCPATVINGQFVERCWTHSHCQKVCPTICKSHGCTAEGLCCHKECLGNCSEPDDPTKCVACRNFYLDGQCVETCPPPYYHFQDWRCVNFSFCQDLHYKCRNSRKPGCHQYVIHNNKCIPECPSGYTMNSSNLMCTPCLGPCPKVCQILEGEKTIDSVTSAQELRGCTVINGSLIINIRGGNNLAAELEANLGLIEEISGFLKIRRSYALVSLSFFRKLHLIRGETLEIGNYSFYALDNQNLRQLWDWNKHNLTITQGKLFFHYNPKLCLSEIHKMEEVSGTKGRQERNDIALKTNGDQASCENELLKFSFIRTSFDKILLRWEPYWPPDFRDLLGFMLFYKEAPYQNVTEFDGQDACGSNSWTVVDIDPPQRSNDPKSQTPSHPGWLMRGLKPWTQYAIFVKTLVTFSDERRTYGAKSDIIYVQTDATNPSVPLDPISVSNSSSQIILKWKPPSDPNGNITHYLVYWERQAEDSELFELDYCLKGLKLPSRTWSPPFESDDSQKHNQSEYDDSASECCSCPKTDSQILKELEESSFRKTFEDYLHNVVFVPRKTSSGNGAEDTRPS
Chain of Insulin receptor (P15127 764-1383 limits assumed): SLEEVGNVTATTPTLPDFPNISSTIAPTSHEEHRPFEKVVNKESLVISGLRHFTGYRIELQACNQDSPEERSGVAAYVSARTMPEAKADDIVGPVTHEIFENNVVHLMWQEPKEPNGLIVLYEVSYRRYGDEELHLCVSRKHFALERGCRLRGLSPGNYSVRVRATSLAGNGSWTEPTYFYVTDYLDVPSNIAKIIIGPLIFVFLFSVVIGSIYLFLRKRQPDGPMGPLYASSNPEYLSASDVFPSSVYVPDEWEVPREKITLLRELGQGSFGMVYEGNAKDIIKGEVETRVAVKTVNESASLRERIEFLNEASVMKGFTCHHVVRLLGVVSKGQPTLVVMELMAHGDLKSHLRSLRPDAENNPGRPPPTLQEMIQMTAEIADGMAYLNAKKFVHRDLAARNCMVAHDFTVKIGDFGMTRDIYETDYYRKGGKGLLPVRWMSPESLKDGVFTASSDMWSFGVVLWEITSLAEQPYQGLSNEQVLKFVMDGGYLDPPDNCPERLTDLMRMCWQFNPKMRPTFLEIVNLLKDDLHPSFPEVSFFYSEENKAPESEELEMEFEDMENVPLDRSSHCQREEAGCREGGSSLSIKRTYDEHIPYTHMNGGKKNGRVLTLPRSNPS

[16] = target: T4, C-X-C chemokine receptor type 1 (Homo sapiens, UniProt P25024); note: in other assays of this panel Not Active means under 50% inhibition at 10 µM
T4 sequence (P25024 whole entry): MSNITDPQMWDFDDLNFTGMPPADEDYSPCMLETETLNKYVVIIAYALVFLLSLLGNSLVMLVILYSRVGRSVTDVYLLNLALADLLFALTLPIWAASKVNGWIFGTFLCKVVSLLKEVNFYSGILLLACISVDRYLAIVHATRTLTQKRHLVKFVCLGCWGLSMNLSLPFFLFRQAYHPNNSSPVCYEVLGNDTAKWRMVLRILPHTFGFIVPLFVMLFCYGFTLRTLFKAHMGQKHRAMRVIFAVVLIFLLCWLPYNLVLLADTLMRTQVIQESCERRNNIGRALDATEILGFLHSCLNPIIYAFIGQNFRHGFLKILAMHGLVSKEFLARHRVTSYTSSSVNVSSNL

SMILES	IC50 [1]	Ki [1]	IC50 [2]	Ki [2]	IC50 [3]	Ki [3]	IC50 [4]	Ki [4]	IC50 [5]	IC50 [6]	IC50 [7]	IC50 [8]	IC50 [9]	IC50 (Calcitonin receptor)	IC50 [11]	Ki [11]	IC50 (Neutrophil elastase)	IC50 [12]	IC50 [13]	Ki [13]	further results
CCC[C@@H]1C[C@@H](C(=O)N[C@@H]([C@H]2O[C@H](SC)[C@H](O)[C@@H](O)[C@H]2O)[C@@H](C)O)N(C)C1 [LINCOMYCIN]	Not Active	Not Active	Not Active	Not Active	Not Active	Not Active	Not Active	Not Active	Not Active	Not Active	Not Active	Not Active	Not Active	Not Active	Not Active	Not Active	Not Active	Not Active	Not Active	Not Active	IC50 [10]: Not Active; Ki [10]: Not Active; IC50 [14]: Not Active; IC50 (D(1A) dopamine receptor): Not Active; IC50 [15]: Not Active; IC50 (Insulin receptor): Not Active; IC50 [16]: Not Active
NNC(=O)c1ccncc1 [ISONIAZID]	Not Active	Not Active	Not Active	Not Active	Not Active	Not Active	Not Active	Not Active	Not Active	Not Active	Not Active	Not Active	Not Active	Not Active	Not Active	Not Active	Not Active	Not Active	Not Active	Not Active	IC50 [10]: Not Active; Ki [10]: Not Active; IC50 [14]: Not Active; IC50 (D(1A) dopamine receptor): Not Active; IC50 [15]: Not Active; IC50 (Insulin receptor): Not Active; IC50 [16]: Not Active
COC(=O)C1=C(C)NC(C)=C(C(=O)OC)C1c1ccccc1[N+](=O)[O-] [NIFEDIPINE]	Not Active	Not Active	Not Active	Not Active	Not Active	Not Active	Not Active	Not Active	Not Active	Not Active	Not Active	Not Active	Not Active	Not Active	Not Active	Not Active	Not Active	Not Active	Not Active	Not Active	IC50 ([10]; read-out: IC50): 23.8 µM; Ki ([10]; read-out: Ki): 8.15 µM; IC50 [14]: Not Active; IC50 (D(1A) dopamine receptor): Not Active; IC50 [15]: Not Active; IC50 (Insulin receptor): Not Active; IC50 [16]: Not Active
Cc1ncc([N+](=O)[O-])n1CC(C)O (configuration not stated) [SECNIDAZOLE]	Not Active	Not Active	Not Active	Not Active	Not Active	Not Active	Not Active	Not Active	Not Active	Not Active	Not Active	Not Active	Not Active	Not Active	Not Active	Not Active	Not Active	Not Active	Not Active	Not Active	IC50 [10]: Not Active; Ki [10]: Not Active; IC50 [14]: Not Active; IC50 (D(1A) dopamine receptor): Not Active; IC50 [15]: Not Active; IC50 (Insulin receptor): Not Active; IC50 [16]: Not Active
COS(C)(=O)=O [METHANESULFONIC ACID METHYL ESTER]	Not Active	Not Active	Not Active	Not Active	Not Active	Not Active	Not Active	Not Active	Not Active	Not Active	Not Active	Not Active	Not Active	Not Active	Not Active	Not Active	Not Active	Not Active	Not Active	Not Active	IC50 [10]: Not Active; Ki [10]: Not Active; IC50 [14]: Not Active; IC50 (D(1A) dopamine receptor): Not Active; IC50 [15]: Not Active; IC50 (Insulin receptor): Not Active; IC50 [16]: Not Active
CC(C)(C)NCC(O)c1ccc(O)c(CO)c1 (configuration not stated) [ALBUTEROL]	Not Active	Not Active	Not Active	Not Active	Not Active	Not Active	Not Active	Not Active	Not Active	Not Active	Not Active	Not Active	Not Active	Not Active	Not Active	Not Active	Not Active	Not Active	Not Active	Not Active	IC50 [10]: Not Active; Ki [10]: Not Active; IC50 [14]: Not Active; IC50 (D(1A) dopamine receptor): Not Active; IC50 [15]: Not Active; IC50 (Insulin receptor): Not Active; IC50 [16]: Not Active
